Laboratory results published in patent US20110182850A1, “ORGANIC COMPOUNDS AND THEIR USES” (priority 2009, published 2011).

Molecular target: T1, HCV NS3-4A serine protease (full-length NS3-4A protein, genotype 1a, strain HCV-1) (Hepatitis C virus genotype 1a, UniProt P26664)
T1 construct: using the full-length NS3-4A protein (genotype 1a, strain HCV-1)
Assay: HCV NS3-4A protease assay
Format: biochemical
Settings: Protease IC50
Description: The inhibitory activity of certain compounds of Table A against HCV NS3-4A serine protease is determined in a homogenous assay using the full-length NS3-4A protein (genotype 1a, strain HCV-1) and a commercially available internally-quenched fluorogenic peptide substrate as described by Taliani, M., et al. 1996 Anal. Biochem. 240:60-67, which is incorporated by reference in its entirety.

T1 sequence (P26664 1658-1711): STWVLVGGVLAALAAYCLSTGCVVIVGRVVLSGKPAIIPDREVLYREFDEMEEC
T1 sequence (P26664 1027-1657): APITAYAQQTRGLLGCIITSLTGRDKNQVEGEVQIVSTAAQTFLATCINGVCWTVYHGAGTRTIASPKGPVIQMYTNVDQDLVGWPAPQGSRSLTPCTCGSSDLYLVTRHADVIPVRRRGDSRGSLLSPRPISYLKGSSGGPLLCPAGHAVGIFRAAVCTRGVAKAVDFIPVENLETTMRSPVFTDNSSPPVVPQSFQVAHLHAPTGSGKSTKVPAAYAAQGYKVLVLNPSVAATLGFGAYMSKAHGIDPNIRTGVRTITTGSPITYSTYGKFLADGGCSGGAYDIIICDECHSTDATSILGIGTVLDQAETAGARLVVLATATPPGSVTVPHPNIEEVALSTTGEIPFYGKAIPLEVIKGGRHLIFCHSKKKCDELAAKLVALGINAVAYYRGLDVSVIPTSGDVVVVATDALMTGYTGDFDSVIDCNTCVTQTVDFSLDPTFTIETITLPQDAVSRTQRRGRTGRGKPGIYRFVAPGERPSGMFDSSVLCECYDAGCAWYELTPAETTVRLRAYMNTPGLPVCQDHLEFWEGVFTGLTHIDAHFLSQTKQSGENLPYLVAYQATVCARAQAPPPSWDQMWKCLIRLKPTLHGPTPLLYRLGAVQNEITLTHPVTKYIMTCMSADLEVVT

Compound	IC50 [nM]
C=C[C@@H]1C[C@]1(NC(=O)[C@@H]1C[C@@]2(CN1C(=O)[C@@H](NC(=O)[C@@H](NC(=O)[C@@H]1CCCCN1C(C)C)C(C)(C)C)C(C)(C)C)C(C)(C)C21CCC1)C(=O)NS(=O)(=O)c1ccccc1 [Compound 17, (5R,8S)-7-[(2S)-2-{[(2S)-2-({[(2S)-1-isopropylpiperidin-2-yl]carbonyl}amino)-3,3-dimethylbutanoyl]amino}-3,3-dimethylbutanoyl]-10,10-dimethyl-N-{(1R,2S)-1-[(phenylsulfonyl)carbamoyl]-2-vinylcyclopropyl}-7-azadispiro[3.0.4.1]decane-8-carboxamide]	4.5
C=C[C@@H]1C[C@]1(NC(=O)[C@@H]1C[C@@]2(CN1C(=O)[C@@H](NC(=O)[C@@H](NC(=O)[C@@H]1CCCCN1C(C)C)C(C)(C)C)C(C)(C)C)C(C)(C)C21CCC1)C(=O)NS(=O)(=O)Cc1ccccc1 [Compound 22, (5R,8S)-N-{(1R,2S)-1-[(benzylsulfonyl)carbamoyl]-2-vinylcyclopropyl}-7-[(2S)-2-{[(2S)-2-({[(2S)-1-isopropylpiperidin-2-yl]carbonyl}amino)-3,3-dimethylbutanoyl]amino}-3,3-dimethylbutanoyl]-10,10-dimethyl-7-azadispiro[3.0.4.1]decane-8-carboxamide]	14
CC(C)N1CCCC[C@H]1C(=O)N[C@H](C(=O)N[C@H](C(=O)N1C[C@]2(C[C@H]1C(=O)NC1(C(=O)NS(=O)(=O)C3CC3)CC=CC1)C(C)(C)C21CCC1)C(C)(C)C)C(C)(C)C [Compound 23, (5R,8S)-N-{1-[(cyclopropylsulfonyl)carba-moyl]cyclopent-3-en-1-yl}-7-[(2S)-2-{[(2S)-2-({[(2S)-1-isopropylpiperidin-2-yl]carbonyl}amino)-3,3-dimethylbutanoyl]amino}-3,3-dimethylbutanoyl]-10,10-dimethyl-7-azadispiro[3.0.4.1]decane-8-carboxamide]	1250

Same assay, conditions: read-out: Protease IC50

IC50 [nM]	Compound
3	C=C[C@@H]1C[C@]1(NC(=O)[C@@H]1C[C@@]2(CN1C(=O)[C@@H](NC(=O)N[C@H](CN(C)S(=O)(=O)c1ccccn1)C(C)(C)C)C(C)(C)C)C(C)(C)C21CCC1)C(=O)NS(=O)(=O)C1CC1 [Compound 18, (5R,8S)-N-{(1R,2S)-1-[(cyclopropylsulfonyl)carba-moyl]-2-vinylcyclopropyl}-7-[(2S)-2-({[(1S)-2,2-dimethyl-1-{[methyl(pyridin-2-ylsulfonyl)amino]methyl}prop-yl]carbamoyl}amino)-3,3-dimethylbutanoyl]-10,10-dimethyl-7-azadispiro[3.0.4.1]decane-8-carboxamide]
350	C=C[C@@H]1C[C@]1(NC(=O)[C@@H]1C[C@@]2(CN1C(=O)[C@@H](NC(=O)C1CCCN(C(C)=O)C1)C(C)(C)C)C(C)(C)C21CCC1)C(=O)NS(=O)(=O)C1CC1 (stereo partly drawn) [Compound 19, (5R,8S)-7-[(2S)-2-{[(1-acetylpiperidin-3-yl)carbonyl]amino}-3,3-dimethylbutanoyl]-N-{(1R,2S)-1-[(cyclopropylsulfonyl)carba-moyl]-2-vinylcyclopropyl}-10,10-dimethyl-7-azadispiro[3.0.4.1]decane-8-carboxamide]
2	C=C[C@@H]1C[C@]1(NC(=O)[C@@H]1C[C@@]2(CN1C(=O)[C@@H](NC(=O)N[C@H](CN(C)S(=O)(=O)N(C)C)C(C)(C)C)C(C)(C)C)C(C)(C)C21CCC1)C(=O)NS(=O)(=O)C1CC1 [Compound 20, (5R,8S)-N-{(1R,2S)-1-[(cyclopropylsulfonyl)carba-moyl]-2-vinylcyclopropyl}-7-[(2S)-2-({[(1S)-1-({[(dimethylamino)sulfonyl] (methyl)amino}methyl)-2,2-dimethylpropyl]carbamoyl}amino)-3,3-dimethylbutanoyl]-10,10-dimethyl-7-azadispiro[3.0.4.1]decane-8-carboxamide]
